Data taken from ChEMBL document CHEMBL1201862, “PubChem BioAssay data set” (2004).
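Cultured in 96-well plates, cells were exposed to test compound for 48 hours across five concentrations. GI50 marks 50% less growth.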 The source made the active and inactive calls. Rule as the data show it: active = GI50 up to about 1.1 µM and inactive = higher.

Legend:
Test in all cases: NCI tumour cell line growth inhibition, 48 h
786-0 = system: 786-0
A498 = system: A498
A549 = system: A549
ACHN = system: ACHN
BT-549 = system: BT-549
CAKI-1 = system: CAKI-1
CCRF-CEM = system: CCRF-CEM
COLO 205 = system: COLO 205
DU-145 = system: DU-145
EKVX = system: EKVX
HCC 2998 = system: HCC 2998
HCT-116 = system: HCT-116
HL-60 = system: HL-60
HOP-62 = system: HOP-62
HOP-92 = system: HOP-92
HT-29 = system: HT-29
Hs-578T = system: Hs-578T
IGROV-1 = system: IGROV-1
K562 = system: K562
KM12 = system: KM12
M14 = system: M14
MCF7 = system: MCF7
MDA-MB-231 = system: MDA-MB-231
MDA-MB-435 = system: MDA-MB-435
MDA-N = system: MDA-N
MOLT-4 = system: MOLT-4
Malme-3M = system: Malme-3M
NCI-H226 = system: NCI-H226
NCI-H23 = system: NCI-H23
NCI-H460 = system: NCI-H460
NCI-H522 = system: NCI-H522
OVCAR-3 = system: OVCAR-3
OVCAR-4 = system: OVCAR-4
OVCAR-5 = system: OVCAR-5
OVCAR-8 = system: OVCAR-8
PC-3 = system: PC-3
RXF 393 = system: RXF 393
SF-268 = system: SF-268
SF-295 = system: SF-295
SF-539 = system: SF-539
SK-MEL-28 = system: SK-MEL-28
SK-MEL-5 = system: SK-MEL-5
SK-OV-3 = system: SK-OV-3
SN12C = system: SN12C
SNB-19 = system: SNB-19
SNB-75 = system: SNB-75
SR = system: SR
SW-620 = system: SW-620
T47D = system: T47D
TK-10 = system: TK-10
U-251 = system: U-251
UACC-257 = system: UACC-257
UACC-62 = system: UACC-62
UO-31 = system: UO-31

Measured: GI50

C[C@]12CCC(=O)C=C1CC[C@@H]1C2CC[C@]2(C)c3nn(-c4ccc(F)cc4)nc3CC12 (some centres undefined)
inactive: 786-0 50.4 µM | A498 49.8 µM | A549 > 100 µM | ACHN > 100 µM | BT-549 > 100 µM | CAKI-1 > 100 µM | CCRF-CEM > 100 µM | COLO 205 > 100 µM | DU-145 > 100 µM | EKVX > 100 µM | HCC 2998 > 100 µM | HCT-116 > 100 µM | HL-60 > 100 µM | HOP-62 76.2 µM | HOP-92 61.1 µM | HT-29 > 100 µM | Hs-578T 64.6 µM | IGROV-1 > 100 µM | K562 > 100 µM | KM12 > 100 µM | M14 > 100 µM | MCF7 > 100 µM | MDA-MB-231 > 100 µM | MDA-MB-435 > 100 µM | MDA-N > 100 µM | MOLT-4 > 100 µM | Malme-3M > 100 µM | NCI-H226 > 100 µM | NCI-H23 > 100 µM | NCI-H460 > 100 µM | NCI-H522 > 100 µM | OVCAR-3 > 100 µM | OVCAR-4 49.3 µM | OVCAR-5 > 100 µM | OVCAR-8 > 100 µM | PC-3 > 100 µM | RXF 393 67.3 µM | SF-268 > 100 µM | SF-295 69.8 µM | SF-539 > 100 µM | SK-MEL-28 > 100 µM | SK-MEL-5 > 100 µM | SK-OV-3 > 100 µM | SN12C > 100 µM | SNB-19 43.6 µM | SNB-75 38.1 µM | SR > 100 µM | SW-620 > 100 µM | T47D > 100 µM | TK-10 > 100 µM | U-251 53.2 µM | UACC-257 > 100 µM | UACC-62 > 100 µM | UO-31 > 100 µM
